Where a name gives a salt, the structure may show the parent alone.

Sequence of HDAC6 (Q9UBN7 whole entry): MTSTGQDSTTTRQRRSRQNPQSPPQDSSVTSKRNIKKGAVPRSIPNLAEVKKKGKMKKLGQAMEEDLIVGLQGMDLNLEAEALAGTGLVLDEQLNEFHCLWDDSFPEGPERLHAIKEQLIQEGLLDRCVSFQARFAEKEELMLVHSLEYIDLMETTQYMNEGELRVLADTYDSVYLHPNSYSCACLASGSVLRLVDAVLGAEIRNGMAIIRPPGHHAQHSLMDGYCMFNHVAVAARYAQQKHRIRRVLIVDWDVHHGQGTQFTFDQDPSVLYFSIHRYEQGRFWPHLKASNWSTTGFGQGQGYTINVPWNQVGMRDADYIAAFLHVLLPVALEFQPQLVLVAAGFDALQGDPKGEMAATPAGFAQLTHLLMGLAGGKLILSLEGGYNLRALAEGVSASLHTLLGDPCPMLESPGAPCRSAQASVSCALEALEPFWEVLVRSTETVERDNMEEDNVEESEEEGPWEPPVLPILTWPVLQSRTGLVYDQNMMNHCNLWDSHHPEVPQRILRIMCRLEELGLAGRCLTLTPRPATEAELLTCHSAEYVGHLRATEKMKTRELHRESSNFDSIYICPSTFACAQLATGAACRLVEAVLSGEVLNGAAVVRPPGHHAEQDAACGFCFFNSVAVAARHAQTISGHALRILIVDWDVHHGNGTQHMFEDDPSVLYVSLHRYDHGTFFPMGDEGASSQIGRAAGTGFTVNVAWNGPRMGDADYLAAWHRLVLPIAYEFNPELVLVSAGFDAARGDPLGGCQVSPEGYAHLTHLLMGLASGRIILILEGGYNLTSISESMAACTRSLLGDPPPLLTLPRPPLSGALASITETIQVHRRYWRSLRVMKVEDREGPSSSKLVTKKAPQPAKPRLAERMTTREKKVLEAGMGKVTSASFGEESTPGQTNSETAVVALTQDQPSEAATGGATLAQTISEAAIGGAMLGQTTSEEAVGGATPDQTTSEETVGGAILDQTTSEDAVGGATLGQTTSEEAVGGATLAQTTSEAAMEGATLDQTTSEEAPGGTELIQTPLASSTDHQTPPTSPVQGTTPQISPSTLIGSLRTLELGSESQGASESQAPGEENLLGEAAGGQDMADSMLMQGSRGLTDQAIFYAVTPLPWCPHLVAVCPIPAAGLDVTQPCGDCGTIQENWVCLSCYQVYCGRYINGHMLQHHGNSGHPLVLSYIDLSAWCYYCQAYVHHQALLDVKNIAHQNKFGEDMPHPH

For the test, the target named is HDAC6 (Homo sapiens (Human), UniProt Q9UBN7). Put plainly: HDAC6 in vitro enzymatic assay (fluorescence). The note with it: Table 3; read-out: IC50 (nM) for inhibition of HDAC6. In kind it is biochemical. How it is done:
Biological Tests Method for Measurement of Enzymatic Activity of HDACs Materials & Methods
All Examples were tested in HDAC1,2,3,6 and 8 in vitro enzymatic assays. The assay principle is well known (Hauser et al. 2009, Bradner et al. 2010) and all necessary reagents like enzymes, substrates, developer and reference compounds are commercially available (see e.g. BPS Biosciences http://www.bpsbioscience.com/). Stock solutions (10 mM in DMSO) of compounds were serially diluted 1:3 in 11 concentrations with a top concentration of 200 μM for HDAC1,2,3 and 2 μM for HDAC6 and HDAC8. The enzymatic reactions were conducted in a mixture containing assay buffer, bovine serum albumin, HDAC substrate, and a test compound. After enzymatic reaction, developer was added and after an additional incubation time, fluorescence intensity was measured at an excitation wavelength of 360 nm and an emission wavelength of 460 nm. All experiments were performed in duplicate.
On to `O=C(NO)c1ccc2oc(-c3ccc4c(c3)OCCO4)nc2c1` [Example 219, 2-(2,3-Dihydro-1,4-benzodioxin-6-yl)-N-hydroxy-1,3-benzoxazole-5-carboxamide], for which the IC50 amounted to 44 nM.

Regarding `Cn1cc(-c2cc3cc(C(=O)NO)ccc3s2)cn1` [Example 99, N-hydroxy-2-(1-methyl-1H-pyrazol-4-yl)-1-benzothiophene-5-carboxamide], the IC50 amounted to 16 nM.

As for `O=C(NO)c1ccc2cc(-c3cccc(O)c3)oc2c1` [Example 284, N-hydroxy-2-(3-hydroxypheny)-1-benzofuran-6-carboxamide], the IC50 was 4 nM.

As for `CC(C)(C)c1ccc(-c2nc3ccc(C(=O)NO)cc3o2)cc1` [Example 51, 2-(4-tert-butylphenyl)-N-hydroxy-1,3-benzoxazole-6-carboxamide], the IC50 is 22 nM.

For the compound `COc1ccccc1N1CCN(c2ccc(-c3nc4cc(C(=O)NO)ccc4o3)cn2)CC1` [Example 160, N-hydroxy-2-{6-[4-(2-methoxyphenyl)piperazin-1-yl]pyridin-3-yl}-1,3-benzoxazole-5-carboxamide trifluoroacetate], the 50% inhibitory concentration (IC50) amounted to 21 nM.

Turning to `Cn1c(N(Cc2ccccc2)c2ccccc2)nc2cc(C(=O)NO)ccc21` [Example 141, 2-(benzyl(phenyl)amino)-N-hydroxy-1-methyl-1H-benzo[d]imidazole-5-carboxamide], the half-maximal inhibitory concentration (IC50) was 22 nM.

Take `CCN(CC)c1ccc(-c2nc3cc(C(=O)NO)ccc3o2)cc1` [Example 33, 2-[4-(Diethylamino)phenyl]-N-hydroxy-1,3-benzoxazole-5-carboxamide trifluoroacetate]: the concentration for half-maximal inhibition (IC50) came to 22 nM.

As to `O=C(NO)c1ccc2oc(-c3ccc(F)c(F)c3)nc2c1` [Example 5, 2-(3,4-difluorophenyl)-N-hydroxy-1,3-benzoxazole-5-carboxamide], the IC50 was 36 nM.

As for `O=C(NO)c1ccc2nc(NCc3ccccc3)[nH]c2c1` [Example 127, 2-(benzylamino)-N-hydroxy-1H-benzo[d]imidazole-6-carboxamide], the IC50 was found to be 60 nM.

On to `CN(C)C(=O)c1ccc(-c2cc3cc(C(=O)NO)ccc3s2)cc1` [Example 108, 2-[4-(dimethylcarbamoyl)phenyl]-N-hydroxy-1-benzothiophene-5-carboxamide], for which the half-inhibitory concentration (IC50) came out at 35 nM.

With `O=C(NO)c1ccc2sc(-c3cncc(Br)c3)nc2c1` [Example 80, 2-(5-Bromopyridin-3-yl)-N-hydroxy-1,3-benzothiazole-5-carboxamide], the 50% inhibitory concentration (IC50) came to 30 nM.

Turning to `O=C(NO)c1ccc2cc(-c3ccccc3)oc2c1` [Example 282, N-Hydroxy-2-phenyl-1-benzofuran-6-carboxamide], the half-inhibitory concentration (IC50) stood at 9 nM.

Take `COc1cc(-c2cc3ccc(C(=O)NO)cc3s2)ccc1O` [Example 150, N-hydroxy-2-(4-hydroxy-3-methoxyphenyl)-1-benzothiophene-6-carboxamide]: the IC50 worked out at 53 nM.

In the case of `COc1ccc(F)cc1-c1cc2cc(C(=O)NO)ccc2s1` [Example 106, 2-(5-fluoro-2-methoxyphenyl)-N-hydroxy-1-benzothiophene-5-carboxyamide], the IC50 came out at 86 nM.

Turning to `O=C(NO)c1ccc2oc(NC3CCCCCCC3)nc2c1` [Example 232, 2-(cyclooctylamino)-N-hydroxy-1,3-benzoxazole-5-carboxamide], the IC50 worked out at 51 nM.

Turning to `Cc1ccc(Nc2nc3cc(C(=O)NO)ccc3o2)cc1` [Example 263, N-hydroxy-2-[(4-methylphenyl)amino]-1,3-benzoxazole-5-carboxamide], the concentration for half-maximal inhibition (IC50) came out at 9 nM.

For `CC(C)(C)c1ccc(OCc2cc3cc(C(=O)NO)ccc3o2)cc1` [Example 163, 2-[(4-tert-Butylphenoxy)methyl]-N-hydroxy-1-benzofuran-5-carboxamide], the IC50 is 58 nM.

With `Cc1[nH]c2ccccc2c1-c1nc2cc(C(=O)NO)ccc2o1` [Example 228, N-hydroxy-2-(2-methyl-1H-indol-3-yl)-1,3-benzoxazole-5-carboxamide], the IC50 turned out to be 27 nM.

Consider `COc1ccc(-c2nc3ccc(C(=O)NO)cc3o2)cc1` [Example 52, N-hydroxy-2-(4-methoxyphenyl)-1,3-benzoxazole-6-carboxamide], for which the IC50 is 17 nM.

For `C[C@@H]1CN(Cc2ccc(-c3nc4cc(C(=O)NO)ccc4o3)cc2)C[C@H](C)O1` [Example 207, 2-(4-{[(cis)-2,6-dimethylmorpholin-4-yl]methyl}phenyl)-N-hydroxy-1,3-benzoxazole-5-carboxamide trifluoroacetate], the IC50 turned out to be 73 nM.

Regarding `COc1ccc(-c2nc3cc(C(=O)NO)ccc3s2)cc1` [Example 78, N-hydroxy-2-(4-methoxyphenyl)-1,3-benzothiazole-5-carboxamide], the IC50 is 12 nM.

Take `O=C(NO)c1ccc2sc(CO)nc2c1` [Example 271, N-Hydroxy-2-(hydroxymethyl)-1,3-benzothiazole-5-carboxamide]: the 50% inhibitory concentration (IC50) came out at 37 nM.

For the compound `CS(=O)(=O)Nc1ccc(-c2cc3cc(C(=O)NO)ccc3s2)cc1` [Example 109, N-hydroxy-2-{4-[(methylsulfonyl)amino]phenyl}-1-benzothiophene-5-carboxamide], the half-inhibitory concentration (IC50) is 86 nM.

With `CC(C)c1ccc(-c2cc3cc(C(=O)NO)cnc3[nH]2)cc1` [Example 84, N-Hydroxy-2-[4-(1-methylethyl)phenyl]-1H-pyrrolo[2,3-b]pyridine-5-carboxamide], the IC50 was determined as 19 nM.

Consider `COc1ccc(CN(CCN(C)C)c2nc3cc(C(=O)NO)ccc3o2)cc1OC` [Example 244, 2-{(3,4-dimethoxybenzyl)[2-(dimethylamino)ethyl]amino}-N-hydroxy-1,3-benzoxazole-5-carboxamide trifluoroacetate], for which the IC50 is 63 nM.

In the case of `O=C(NO)c1ccc2oc(-c3ccc(-c4cccnc4)cc3)nc2c1` [Example 23, N-hydroxy-2-(4-pyridin-3-ylphenyl)-1,3-benzoxazole-5-carboxamide], the IC50 came to 11 nM.

For the compound `CC(C)c1ccc(-c2nc3cc(C(=O)NO)cnc3o2)cc1` [Example 83, N-Hydroxy-2-[4-(1-methylethyl)phenyl][1,3]oxazolo[5,4-b]pyridine-6-carboxamide], the IC50 amounted to 25 nM.

On to `O=C(NO)c1ccc2nc(Nc3cccc(-c4ccccc4)c3)[nH]c2c1` [Example 136, 2-([1,1′-biphenyl]-3-ylamino)-N-hydroxy-1H-benzo[d]imidazole-6-carboxamide], for which the half-inhibitory concentration (IC50) was determined as 72 nM.

Consider `O=C(NO)c1ccc2nc(-c3ccc(-c4cccnc4)nc3)oc2c1` [Example 55, 2-(2,3′-Bipyridin-5-yl)-N-hydroxy-1,3-benzoxazole-6-carboxamide trifluoroacetate], for which the IC50 turned out to be 81 nM.

On to `Cc1noc(C)c1-c1ccc(-c2nc3cc(C(=O)NO)ccc3o2)cc1` [Example 181, 2-[4-(3,5-dimethylisoxazol-4-yl)phenyl]-N-hydroxy-1,3-benzoxazole-5-carboxamide], for which the IC50 is 31 nM.

Turning to `O=C(NO)c1ccc2oc(-c3cccc(O)c3)nc2c1` [Example 220, N-hydroxy-2-(3-hydroxyphenyl)-1,3-benzoxazole-5-carboxamide], the IC50 amounted to 32 nM.

For the compound `O=C(NO)c1ccc2nc(-c3ccc(F)cc3)oc2c1` [Example 50, 2-(4-Fluorophenyl)-N-hydroxy-1,3-benzoxazole-6-carboxamide], the 50% inhibitory concentration (IC50) is 34 nM.

As for `CC(C)c1ccc(NCc2nc3cc(C(=O)NO)ccc3s2)cc1` [Example 275, N-Hydroxy-2-({[4-(1-methylethyl)phenyl]amino}methyl)-1,3-benzothiazole-5-carboxamide], the IC50 was found to be 8 nM.

In the case of `O=C(NO)c1ccc2oc(-c3ccc(N4CCCC4)nc3)nc2c1` [Example 41, N-Hydroxy-2-(6-pyrrolidin-1-ylpyridin-3-yl)-1,3-benzoxazole-5-carboxamide trifluoroacetate], the concentration for half-maximal inhibition (IC50) is 22 nM.

As to `CN(Cc1ccccc1)c1nc2cc(C(=O)NO)ccc2n1C` [Example 139, 2-(benzyl(methyl)amino)-N-hydroxy-1-methyl-1H-benzo[d]imidazole-5-carboxamide], the IC50 worked out at 30 nM.

In the case of `O=C(NO)c1ccc2nc(NCc3ccc(-c4ccccc4)cc3)[nH]c2c1` [Example 125, 2-(([1,1′-biphenyl]-4-ylmethyl)amino)-N-hydroxy-1H-benzo[d]imidazole-6-carboxamide], the 50% inhibitory concentration (IC50) amounted to 7 nM.

In the case of `CC(C)c1ccc(-c2cc3cc(C(=O)NO)ccc3[nH]2)cc1` [Example 60, N-Hydroxy-2-[4-(1-methylethyl)phenyl]-1H-indole-5-carboxamide], the IC50 was 62 nM.

Take `O=C(NO)c1ccc2oc(-c3ccc(N4CCOCC4)nc3)nc2c1` [Example 15, N-hydroxy-2-(6-morpholin-4-ylpyridin-3-yl)-1,3-benzoxazole-5-carboxamide]: the IC50 was determined as 28 nM.

Consider `O=C(NO)c1ccc2oc(-c3cccc(Br)c3)nc2c1` [Example 16, 2-(3-bromophenyl)-N-hydroxy-1,3-benzoxazole-5-carboxamide], for which the half-maximal inhibitory concentration (IC50) amounted to 7 nM.

`O=C(NO)c1ccc2oc(-c3ccc4[nH]nnc4c3)nc2c1` [Example 39, 2-(1H-Benzotriazol-5-yl)-N-hydroxy-1,3-benzoxazole-5-carboxamide]: the IC50 is 26 nM.

Consider `CCc1ccc(-c2nc3cc(C(=O)NO)ccc3s2)cc1` [Example 82, 2-(4-Ethylphenyl)-N-hydroxy-1,3-benzothiazole-5-carboxamide], for which the IC50 worked out at 11 nM.

On to `O=C(NO)c1ccc2cc(-c3ccoc3)sc2c1` [Example 149, 2-furan-3-yl-N-hydroxy-1-benzothiophene-6-carboxamide], for which the concentration for half-maximal inhibition (IC50) came to 49 nM.

Source of the values: patent US10654814B2, “Bicyclic hydroxamic acids useful as inhibitors of mammalian histone deacetylase activity” (KANCERA AB, priority 2015, dated 2020).
